The values that follow are results of earlier work, collected in publication PMC7395068, “The evolution of strategies to minimise the risk of human drug-induced liver injury (DILI) in drug discovery and development” (Archives of Toxicology, 2020).

Like-named read-outs stand apart in the source and are kept apart here.

For data set [1] the following is noted: cited from earlier work.
Another data set deals with HepG2 cells. Particulars: cited from earlier work.
The conditions of data set [2]: cited from earlier work. The source holds these as a separate data set.
Data set [3] deals with THLE or HepG2 cells, isolated mitochondria, BSEP. Particulars: cited from earlier work.
In the next data set the test system is human hepatocytes. Conditions: In vitro Assay; ref Xu 2008; cited from earlier work.
[4] abbreviates: In vitro Assay, ref O'Brien 2006.
Where [5] appears, read: assignment in O'Brien 2006, ref O'Brien 2006.

Turning to `CC(C)(O/N=C(\C(=O)N[C@@H]1C(=O)N2C(C(=O)[O-])=C(C[n+]3ccccc3)CS[C@H]12)c1csc(N)n1)C(=O)O` [ceftazidime], in data set [1] (ref Chen 2016), the “DILI +VE (5-8), DILI -VE (-4)” value was “+VE” and the DILI severity category entry is listed as “vLess-DILI-Concern”. The “Structural based (HCI)” value in the data set on HepG2 cells (setting [4]) is “+VE (lowest HCI endpoint IC50 (or in the absence of dose–response < 100 µM) < 30 × total human plasma exposure levels (Cmax.tot))”. Further, the “In vivo DILI” value in data set [2] ([…]) is “+VE”. In data set [2] (ref O'Brien 2006), the “In vivo DILI” value is on record as “+VE”.
Consider `COCc1c(C(C)C)nc(C(C)C)c(/C=C/[C@@H](O)C[C@@H](O)CC(=O)O)c1-c1ccc(F)cc1` [cerivastatin], for which the “Structural based (HCI)” value in the data set with HepG2 cells is recorded as “+VE (key: +VE: lowest HCI endpoint IC50 (or in the absence of dose–response < 100 µM) < 30 × total human plasma exposure levels (Cmax.tot))”. Further, the “In vivo DILI” value in data set [2] (ref O'Brien 2006) was “+VE”.
`Oc1c(I)cc(Cl)c2cccnc12` [clioquinol]: in the data set on HepG2 cells (setting [4]), the “Structural based (HCI)” value was “+VE (lowest HCI endpoint IC50 (or in the absence of dose–response < 100 µM) < 30 × total human plasma exposure levels (Cmax.tot))”. In data set [2] (ref O'Brien 2006), the “In vivo DILI” value is recorded as “-VE”.
For `CCOC(=O)[C@H](CCc1ccccc1)N[C@@H](C)C(=O)N1CCC[C@H]1C(=O)O` [enalapril], in data set [1] (ref Chen 2016), the “DILI +VE (5-8), DILI -VE (-4)” value is listed as “+VE” and the DILI severity category entry is “vLess-DILI-Concern”. Also, in the data set with HepG2 cells (setting [4]), the “Structural based (HCI)” value is recorded as “+VE (lowest HCI endpoint IC50 (or in the absence of dose–response < 100 µM) < 30 × total human plasma exposure levels (Cmax.tot))”. Besides, the “In vivo DILI” value in data set [2] (ref O'Brien 2006) is on record as “+VE”.
For `CC[C@]1(O)CC[C@H]2[C@@H]3CCC4=CCCC[C@@H]4[C@H]3CC[C@@]21C` [ethylestrenol], the “Structural based (HCI)” value with HepG2 cells (setting [4]) was “+VE (lowest HCI endpoint IC50 (or in the absence of dose–response < 100 µM) < 30 × total human plasma exposure levels (Cmax.tot))”. Moreover, the “In vivo DILI” value in data set [2] (ref O'Brien 2006) is “+VE”.
For the compound `CCNC(C)Cc1cccc(C(F)(F)F)c1` (stereo not shown) [fenfluramine], in the data set with HepG2 cells (setting [4]), the “Structural based (HCI)” value is reported as “-VE”. Further, in data set [2] (ref O'Brien 2006), the “In vivo DILI” value was “-VE”.
On to `O=C(O)c1ccccc1Nc1cccc(C(F)(F)F)c1` [flufenamate], for which, in the data set with HepG2 cells (setting [4]), the “Structural based (HCI)” value was “+VE (lowest HCI endpoint IC50 (or in the absence of dose–response < 100 µM) < 30 × total human plasma exposure levels (Cmax.tot))”. Besides, the “In vivo DILI” value in data set [2] (ref O'Brien 2006) is recorded as “-VE”.
Turning to `O=C(O)P(=O)(O)O` [foscarnet], in data set [1] (ref Chen 2016), the “DILI +VE (5-8), DILI -VE (-4)” value was “-VE” and the DILI severity category entry was “Ambiguous DILI-concern”. In the data set with HepG2 cells (setting [4]), the “Structural based (HCI)” value is reported as “+VE (lowest HCI endpoint IC50 (or in the absence of dose–response < 100 µM) < 30 × total human plasma exposure levels (Cmax.tot))”. For the same compound, in data set [2] (ref O'Brien 2006), the “In vivo DILI” value is listed as “-VE”.
With `FC(F)(F)C(Cl)Br` (stereo not shown) [halothane], the “Structural based (HCI), In vitro Assay” value in the data set on HepG2 cells (HepG2 HCI, ref O'Brien 2006) is given as “+VE”. Besides, the “In vivo DILI” value in data set [2] (setting [5]) is recorded as “-VE”.
For the compound `NNc1nncc2ccccc12` [hydralazine], in data set [1] (ref Chen 2016), the “DILI +VE (5-8), DILI -VE (-4)” value is given as “+VE” and the DILI severity category entry is listed as “vLess-DILI-Concern”. The “Structural based (HCI)” value in the data set on HepG2 cells (setting [4]) is “+VE (lowest HCI endpoint IC50 (or in the absence of dose–response < 100 µM) < 30 × total human plasma exposure levels (Cmax.tot))”. Further, the “In vivo DILI” value in data set [2] ([…]) is on record as “+VE”. Further, the “In vivo DILI” value in data set [2] (ref O'Brien 2006) is “+VE”.
`CC(C(=O)O)c1ccc(N2Cc3ccccc3C2=O)cc1` (stereo not shown) [indoprofen]: the “Structural based (HCI), In vitro Assay” value with HepG2 cells (HepG2 HCI, ref O'Brien 2006) is “+VE”. Besides, the “In vivo DILI” value in data set [2] (setting [5]) is “-VE”.
With `NC[C@H]1O[C@H](O[C@H]2[C@H](O)[C@@H](O[C@H]3O[C@H](CO)[C@@H](O)[C@H](N)[C@H]3O)[C@H](N)C[C@@H]2N)[C@H](O)[C@@H](O)[C@@H]1O` [kanamycin], in data set [3], the “Partition Hybrid HRM Score” value is listed as “-VE” and the “Ro2 Hybrid HRM Score” value is given as “-VE”. The “Structural based (HCI)” value in the data set on HepG2 cells was “+VE”.
For `C=C1c2cccc(O)c2C(=O)C2=C(O)[C@]3(O)C(=O)C(C(N)=O)=C(O)[C@@H](N(C)C)[C@@H]3[C@@H](O)[C@H]12` [methacycline], the results for the “Structural based (HCI)” value in the data set with human hepatocytes and with HepG2 cells (setting [4]) were “+VE” and “+VE (lowest HCI endpoint IC50 (or in the absence of dose–response < 100 µM) < 30 × total human plasma exposure levels (Cmax.tot))”, respectively. Besides, the “In vivo DILI” value in data set [2] (ref O'Brien 2006) and in data set [2] (ref Xu 2008) was “+VE” each time.
Regarding `CC[C@H](C)C(=O)O[C@H]1CCC=C2C=C[C@H](C)[C@H](CC[C@@H]3C[C@@H](O)CC(=O)O3)[C@H]21` [mevastatin], the “Structural based (HCI), In vitro Assay” value in the data set on HepG2 cells (HepG2 HCI, ref O'Brien 2006) is on record as “-VE”. In data set [2] (setting [5]), the “In vivo DILI” value was “-VE”.
For the compound `O=C(O)c1cccnc1` [niacin], in data set [3] (In vitro Assay, ref Aleo 2019), the “Partition Hybrid HRM Score” value is “+VE” and the “Ro2 Hybrid HRM Score” value is on record as “-VE”. Moreover, the “Structural based (HCI)” value in the data set on HepG2 cells (setting [4]) is on record as “-VE”.
On to `CCn1cc(C(=O)O)c(=O)c2cc(F)c(N3CCNCC3)cc21` [norfloxacin], for which, in data set [1] (ref Chen 2016), the “DILI +VE (5-8), DILI -VE (-4)” value is recorded as “+VE” and the DILI severity category result was “vLess-DILI-Concern”. The “Structural based (HCI)” value in the data set on HepG2 cells (setting [4]) is reported as “+VE (lowest HCI endpoint IC50 (or in the absence of dose–response < 100 µM) < 30 × total human plasma exposure levels (Cmax.tot))”. Also, the “In vivo DILI” value in data set [2] (ref O'Brien 2006) is “+VE”.
`CCC1(c2ccccc2)C(=O)NCNC1=O` [primidone]: the “DILI +VE (5-8), DILI -VE (-4)” value in data set [1] (in vivo) was “-VE”. Also, the “Structural based (HCI)” value in the data set on HepG2 cells is listed as “+VE”.
As to `[Cl-].[Na+]` [sodium chloride], the “Structural based (HCI), In vitro Assay” value in the data set with HepG2 cells is reported as “+VE”. Moreover, the “In vivo DILI” value in data set [2] (in vivo) is “-VE”.
As to `CN(N=O)C(=O)N[C@@H](C=O)[C@@H](O)[C@H](O)[C@H](O)CO` [streptozocin], in data set [1] (ref Chen 2016), the “DILI +VE (5-8), DILI -VE (-4)” value is recorded as “-VE” and the DILI severity category result is on record as “Ambiguous DILI-concern”. In the data set with HepG2 cells (setting [4]), the “Structural based (HCI)” value was “-VE”. Moreover, the “In vivo DILI” value in data set [2] (ref O'Brien 2006) is “-VE”.
`Nc1ccc(S(=O)(=O)NC(=O)c2ccccc2)cc1` [sulfabenzamide]: the “Structural based (HCI), In vitro Assay” value in the data set on HepG2 cells (HepG2 HCI, ref O'Brien 2006) is recorded as “-VE”. Moreover, the “In vivo DILI” value in data set [2] (setting [5]) is on record as “-VE”.
In the case of `Nc1ccc(S(=O)(=O)Nc2ccnn2-c2ccccc2)cc1` [sulfaphenazole], in the data set on HepG2 cells (setting [4]), the “Structural based (HCI)” value is “+VE (lowest HCI endpoint IC50 (or in the absence of dose–response < 100 µM) < 30 × total human plasma exposure levels (Cmax.tot))”. Further, the “In vivo DILI” value in data set [2] ([…]) is recorded as “-VE”; in data set [2] (ref O'Brien 2006) it was “+VE”.
For the compound `Cc1scc2c1N(C(=O)CN1CCN(C)CC1)c1ccccc1NC2=O` [telenzipine], the “Structural based (HCI), In vitro Assay” value in the data set with HepG2 cells (HepG2 HCI, ref O'Brien 2006) is on record as “-VE”. Further, the “In vivo DILI” value in data set [2] (setting [5]) was “-VE”.
Consider `Cc1ccc(S(=O)(=O)NC(=O)NN2CCCCCC2)cc1` [tolazamide], for which, in data set [1] (ref Chen 2016), the “DILI +VE (5-8), DILI -VE (-4)” value is on record as “+VE” and the DILI severity category entry is reported as “vLess-DILI-Concern”. Further, the “Structural based (HCI)” value with HepG2 cells (setting [4]) is reported as “+VE (lowest HCI endpoint IC50 (or in the absence of dose–response < 100 µM) < 30 × total human plasma exposure levels (Cmax.tot))”. In data set [2] (ref O'Brien 2006), the “In vivo DILI” value is given as “+VE”.
Turning to `CC[C@]12CCCN3CCc4c(n(c5ccccc45)[C@@](O)(C(=O)OC)C1)[C@@H]32` [vincamine], in the data set on HepG2 cells (HepG2 HCI, ref O'Brien 2006), the “Structural based (HCI), In vitro Assay” value is recorded as “+VE”. Further, in data set [2] (setting [5]), the “In vivo DILI” value was “-VE”.
In the case of `NS(=O)(=O)Cc1noc2ccccc12` [zonisamide], in data set [1] (ref Chen 2016), the “DILI +VE (5-8), DILI -VE (-4)” value was “+VE” and the DILI severity category result is given as “vLess-DILI-Concern”. Also, the “Structural based (HCI)” value with HepG2 cells (setting [4]) is given as “+VE (lowest HCI endpoint IC50 (or in the absence of dose–response < 100 µM) < 30 × total human plasma exposure levels (Cmax.tot))”. For the same compound, the “In vivo DILI” value in data set [2] (ref O'Brien 2006) is on record as “-VE”.
